Test results taken from patent publication US20080269251A1, “Substituted Pyrazinone Derivatives as Alpha2C-Adrenoreceptor Antagonists” (priority 2005, published 2008).

Tests used:
5HT-transporter = target: T1, 5HT-transporter (Homo sapiens, UniProt P31645); test: Binding experiment for the 5HT-transporter ([3H]paroxetine, human platelet membranes); conditions: [3H]paroxetine 0.5 nM, 60 min at 25° C.; for IC50: read-out: h-5HTT pIC50 (converted)
T1 construct: Human platelet membranes (Oceanix Biosciences Corporation, Hanover, Md., USA) were thawed; tissue Oceanix Biosciences Corporation, Hanover, Md., USA; host or cells: human platelet membranes
Protocol: (§1) The interaction of the compounds of Formula (I) with α2C-adrenoceptor receptors was assessed in in vitro radioligand binding experiments. In general, a low concentration of a radioligand with a high binding affinity for a particular receptor or transporter is incubated with a sample of a tissue preparation enriched in a particular receptor or transporter or with a preparation of cells expressing cloned human receptors in a buffered medium. During the incubation, the radioligand binds to the receptor or transporter. When equilibrium of binding is reached, the receptor bound radioactivity is separated from the non-bound radioactivity, and the receptor- or transporter-bound activity is counted. The interaction of the test compounds with the receptor is assessed in competition binding experiments. Various concentrations of the test compound are added to the incubation mixture containing the receptor- or transporter preparation and the radioligand. The test compound in proportion to its binding affinity and its concentration inhibits binding of the radioligand. The radioligand used for […] receptor binding was [^3H]-raulwolscine.
Human platelet membranes (Oceanix Biosciences Corporation, Hanover, Md., USA) were thawed, diluted in buffer (Tris-HCl 50 mM, 120 mM NaCl and 5 mM KCl) and quickly (max 3 s) homogenised with an Ultraturrax homogenizer. […] Incubation was stopped by rapid filtration of the incubation mixture over GF/B filters, pre-wetted with 0.1% polyethyleneamine, using a Filtermate196 harvester (Packard, Meriden, Conn.). Filters were rinsed extensively with ice-cold buffer and radioactivity on the filters was counted in a Topcount liquid scintillation counter (Packard, Meriden, Conn.). Data were expressed as cpm. Imipramine (at 1 μM final concentration) was used to determine the non-specific binding.
(§2) Data from assays in the presence of compound were calculated as a percentage of total binding measured in the absence of test compound. Inhibition curves, plotting percent of total binding versus the log value of the concentration of the test compound, were automatically generated, and sigmoidal inhibition curves were fitted using non-linear regression. The pIC50 values of test compounds were derived from individual curves.

[1] = target: T2, human adrenergic-α2C receptor (Homo sapiens, UniProt P18825); test: Radioligand binding experiment for hα2C-adrenoceptor ([3H]raulwolscine); conditions: [3H]raulwolscine 1 nM, 60 minutes at 25° C.; for IC50: read-out: h-α2C pIC50 (converted)
T2 construct: expressed in transfected cells; host or cells: CHO cells, stably transfected; membrane preparation
T2 sequence (P18825 1-462): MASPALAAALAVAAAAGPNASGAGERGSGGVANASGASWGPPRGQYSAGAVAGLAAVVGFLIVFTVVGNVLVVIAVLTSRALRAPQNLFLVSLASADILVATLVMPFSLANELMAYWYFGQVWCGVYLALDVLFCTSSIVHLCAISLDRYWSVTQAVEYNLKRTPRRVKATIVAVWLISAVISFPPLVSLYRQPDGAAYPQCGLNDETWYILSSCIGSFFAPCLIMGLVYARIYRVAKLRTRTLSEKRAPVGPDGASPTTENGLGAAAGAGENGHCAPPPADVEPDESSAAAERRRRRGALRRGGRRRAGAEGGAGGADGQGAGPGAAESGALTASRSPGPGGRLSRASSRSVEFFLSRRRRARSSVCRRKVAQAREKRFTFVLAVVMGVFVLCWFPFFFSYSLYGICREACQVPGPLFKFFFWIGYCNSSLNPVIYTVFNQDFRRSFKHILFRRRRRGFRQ
Protocol: as §1
(§3) CHO cells, stabile transfected with human adrenergic-α2A, -α2B or α2C receptor cDNA, were cultured in Dulbecco's Modified Eagle's Medium (DMEM)/Nutrient mixture Ham's F12 (ratio 1:1)(Gibco, Gent-Belgium) supplemented with 10% heat inactivated fetal calf serum (Life Technologies, Merelbeke-Belgium) and antibiotics (100 IU/ml penicillin G, 100 μg/ml streptomycin sulphate, 110 μg/ml pyruvic acid and 100 μg/ml L-glutamine). One day before collection, cells were induced with 5 mM sodiumbutyrate. Upon 80-90% of confluence, cells were scraped in phosphate buffered saline without Ca^2+ and Mg^2+ and collected by centrifugation at 1500×g for 10 minutes. The cells were homogenised in Tris-HCl 50 mM using an Ultraturrax homogenizer and centrifuged for 10 minutes at 23,500×g. The pellet was washed once by resuspension and rehomogenization and the final pellet was resuspended in Tris-HCl, divided in 1 ml aliquots and stored at −70° C.
(§4) Membranes were thawed and re-homogenized in incubation buffer (glycylglycine 25 mM, pH 8.0). In a total volume of 500 μl, 2-10 μg protein was incubated with [^3H]raulwolscine (NET-722) (New England Nuclear, USA) (1 nM final concentration) with or without competitor for 60 minutes at 25° C. followed by rapid filtration over GF/B filter using a Filtermate196 harvester (Packard, Meriden, Conn.). Filters were rinsed extensively with ice-cold rinsing buffer (Tris-HCl 50 mM pH 7.4). Filter-bound radioactivity was determined by scintillation counting in a Topcount (Packard, Meriden, Conn.) and results were expressed as counts per minute (cpm). Non-specific binding was determined in the presence of 1 μM oxymetazoline for hα2A- and hα2B receptors and 1 μM spiroxatrine for hα2C receptors.
as §2

[2] = target: T3, human adrenergic-α2A receptor (Homo sapiens, UniProt P08913); test: Radioligand binding experiment for hα2A-adrenergic receptor ([3H]raulwolscine); conditions: [3H]raulwolscine 1 nM, 60 minutes at 25° C.; for IC50: read-out: h-α2A pIC50 (converted)
T3 construct: expressed in transfected cells; host or cells: CHO cells, stably transfected; membrane preparation
T3 sequence (P08913 1-465): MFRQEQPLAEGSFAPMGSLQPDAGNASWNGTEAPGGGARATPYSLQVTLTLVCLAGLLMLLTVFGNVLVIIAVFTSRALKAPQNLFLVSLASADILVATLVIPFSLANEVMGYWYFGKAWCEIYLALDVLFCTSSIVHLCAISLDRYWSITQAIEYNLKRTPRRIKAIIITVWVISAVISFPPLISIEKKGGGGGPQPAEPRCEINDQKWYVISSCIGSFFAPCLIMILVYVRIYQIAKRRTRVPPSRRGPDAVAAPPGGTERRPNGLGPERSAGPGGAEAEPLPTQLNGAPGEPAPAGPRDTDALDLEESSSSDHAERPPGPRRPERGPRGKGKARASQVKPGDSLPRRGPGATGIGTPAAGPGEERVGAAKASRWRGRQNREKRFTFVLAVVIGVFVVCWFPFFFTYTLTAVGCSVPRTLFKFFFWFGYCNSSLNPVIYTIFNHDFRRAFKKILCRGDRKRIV
Protocol: as §1, §3, §4, §2

T1 sequence (P31645 whole entry): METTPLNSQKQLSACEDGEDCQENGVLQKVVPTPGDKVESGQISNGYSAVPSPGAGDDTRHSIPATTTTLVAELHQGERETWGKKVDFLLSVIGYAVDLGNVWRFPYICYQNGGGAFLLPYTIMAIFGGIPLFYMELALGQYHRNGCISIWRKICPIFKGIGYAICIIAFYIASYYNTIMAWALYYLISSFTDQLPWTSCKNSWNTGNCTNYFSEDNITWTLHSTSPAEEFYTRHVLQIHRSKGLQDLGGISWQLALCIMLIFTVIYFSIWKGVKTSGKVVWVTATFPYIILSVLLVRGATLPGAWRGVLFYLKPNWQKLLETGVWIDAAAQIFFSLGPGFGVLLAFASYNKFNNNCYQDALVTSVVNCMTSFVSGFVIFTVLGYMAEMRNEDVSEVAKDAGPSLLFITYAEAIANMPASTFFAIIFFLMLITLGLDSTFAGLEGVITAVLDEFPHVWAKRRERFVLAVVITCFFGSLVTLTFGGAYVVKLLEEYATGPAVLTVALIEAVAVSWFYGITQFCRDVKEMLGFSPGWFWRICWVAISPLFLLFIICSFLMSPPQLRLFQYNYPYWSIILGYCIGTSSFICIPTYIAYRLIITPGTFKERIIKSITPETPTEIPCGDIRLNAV

Structure (SMILES) | IC50 (5HT-transporter) | IC50 [1] | IC50 [2] | h-5HTT pIC50 (5HT-transporter) | h-α2C pIC50 [1] | h-α2A pIC50 [2]
O=C(Cn1ccnc(NC2CCN(Cc3ccc4ccccc4c3)CC2)c1=O)Nc1ccc(F)cc1 [1-65] | 158 nM | 39.8 nM | 158 nM |  |  | 
O=C(Cn1ccnc(NC2CCN(Cc3ccc4ccccc4c3)CC2)c1=O)NCc1ccc(F)cc1 [1-66] | 63.1 nM | 12.6 nM | 316 nM |  |  | 
O=c1c(NC2CCN(Cc3ccc4ccccc4c3)CC2)nccn1CCCNCc1ccccc1 [1-67] | 158 nM | 25.1 nM | 631 nM |  |  | 
O=C(Cn1ccnc(NC2CCN(Cc3ccc4ccccc4c3)CC2)c1=O)NCc1ccccc1 [1-68] | 158 nM | 20 nM | 200 nM |  |  | 
CN(Cc1ccccc1)C(=O)Cn1ccnc(NC2CCN(Cc3ccc4ccccc4c3)CC2)c1=O [1-69] | 50.1 nM | 20 nM | 200 nM |  |  | 
CN(Cc1ccccc1)Cc1ccc(-n2ccnc(NC3CCN(Cc4ccc5ccccc5c4)CC3)c2=O)cc1 [1-70] |  |  |  | 8.0 | 7.5 | 6.5
O=C(Cn1ccnc(NC2CCN(Cc3ccc4ccccc4c3)CC2)c1=O)NCCc1ccccc1 [1-71] | 126 nM | 20 nM | 316 nM |  |  | 
O=C(Cn1ccnc(NC2CCN(Cc3ccc4ccccc4c3)CC2)c1=O)NCCCc1ccccc1 [1-72] | 63.1 nM | 31.6 nM | 200 nM |  |  | 
CC(C)(Cc1ccccc1)NC(=O)Cn1ccnc(NC2CCN(Cc3ccc4ccccc4c3)CC2)c1=O [1-73] | 158 nM | 39.8 nM | 398 nM |  |  | 
O=C(NCCCn1ccnc(NC2CCN(Cc3ccc4ccccc4c3)CC2)c1=O)c1ccccc1 [1-74] | 126 nM | 31.6 nM | 794 nM |  |  | 
O=C(Nc1cccc(-n2ccnc(NC3CCN(Cc4ccc5ccccc5c4)CC3)c2=O)c1)c1ccc(F)cc1 [1-75] | 3.98 nM | 63.1 nM | 100 nM |  |  | 
O=C(NCc1ccc(-n2ccnc(NC3CCN(Cc4ccc5ccccc5c4)CC3)c2=O)cc1)c1ccc(F)cc1 [1-76] |  |  |  | 8.2 | 8.1 | 6.2
O=c1c(NC2CCN(Cc3ccc4ccccc4c3)CC2)nccn1CCCNCCOc1ccccc1 [1-77] | 63.1 nM | 25.1 nM | 398 nM |  |  | 
O=c1c(NC2CCN(Cc3ccc4ccccc4c3)CC2)nccn1-c1ccc(CNCC2CCCO2)c(F)c1 (stereo not drawn) [1-80] | 3.16 nM | 2.51 nM | 251 nM |  |  | 
O=C(Cn1ccnc(NC2CCN(Cc3ccc4ccccc4c3)CC2)c1=O)NCc1ccco1 [1-81] | 631 nM | 31.6 nM | 158 nM |  |  | 
O=c1c(NC2CCN(Cc3ccc4ccccc4c3)CC2)nccn1-c1ccc(CNCc2ccco2)cc1 [1-82] | 5.01 nM | 12.6 nM | 158 nM |  |  | 

Structure (SMILES) | IC50 (5HT-transporter) | IC50 [1] | IC50 [2] | h-5HTT pIC50 (5HT-transporter) | h-α2C pIC50 [1] | h-α2A pIC50 [2]
Cc1ccc(CNCc2ccc(-n3ccnc(NC4CCN(Cc5ccc6ccccc6c5)CC4)c3=O)cc2)o1.Cl.Cl [1-83] |  |  |  | 8.3 | 7.6 | 6.7
Cc1ccc(CNCc2ccc(-n3ccnc(NC4CCN(Cc5ccc6ccccc6c5)CC4)c3=O)cc2F)o1 [1-84] | 3.16 nM | 10 nM | 200 nM |  |  | 
Cc1ccc(CN(Cc2ccc(-n3ccnc(NC4CCN(Cc5ccc6ccccc6c5)CC4)c3=O)cc2)Cc2ccc(C)o2)o1 [1-85] | 31.6 nM | 79.4 nM | 794 nM |  |  | 
Cc1cc(CNC(=O)c2ccc(-n3ccnc(NC4CCN(Cc5ccc6ccccc6c5)CC4)c3=O)cc2)no1 [1-86] | 25.1 nM | 25.1 nM | 251 nM |  |  | 
Cc1cc(CNCc2ccc(-n3ccnc(NC4CCN(Cc5ccc6ccccc6c5)CC4)c3=O)cc2F)no1 [1-87] | 12.6 nM | 12.6 nM | 251 nM |  |  | 
O=c1c(NC2CCN(Cc3ccc4ccccc4c3)CC2)nccn1-c1ccc(NCCN2CCC(F)CC2)cc1 [1-89] | 15.8 nM | 12.6 nM | 200 nM |  |  | 
O=c1c(NC2CCN(Cc3ccc4ccccc4c3)CC2)nccn1-c1ccc(CNCc2ccccn2)cc1 [1-90] | 7.94 nM | 12.6 nM | 251 nM |  |  | 
O=c1c(NC2CCN(Cc3ccc4ccccc4c3)CC2)nccn1-c1ccc(CNCCN2CCOCC2)cc1 [1-93] | 15.8 nM | 20 nM | 316 nM |  |  | 
O=C(Cn1ccnc(NC2CCN(Cc3ccc4ccccc4c3)CC2)c1=O)NCCN1CCOCC1 [1-94] | 2000 nM | 50.1 nM | 631 nM |  |  | 
O=C(Cc1ccsc1)NCc1ccc(-n2ccnc(NC3CCN(Cc4ccc5ccccc5c4)CC3)c2=O)cc1 [1-95] | 6.31 nM | 20 nM | 398 nM |  |  | 
Cl.O=C(CCN1CCC(F)CC1)NCc1ccc(-n2ccnc(NC3CCN(Cc4ccc5ccccc5c4)CC3)c2=O)cc1F [1-96] |  |  |  | 8.0 | 8.3 | 7.1
O=C(NCc1ccc(-n2ccnc(NC3CCN(Cc4ccc5ccccc5c4)CC3)c2=O)cc1)c1ccno1 [1-100] | 12.6 nM | 3.98 nM | 501 nM |  |  | 
O=C(NCc1ccc(-n2ccnc(NC3CCN(Cc4ccc5ccccc5c4)CC3)c2=O)cc1)c1ccncc1 [1-101] | 6.31 nM | 25.1 nM | 501 nM |  |  | 
O=C(CNCCCn1ccnc(NC2CCN(Cc3ccc4ccccc4c3)CC2)c1=O)c1coc2ccccc12 [1-103] | 158 nM | 31.6 nM | 631 nM |  |  | 
O=C(Cn1ccnc(NC2CCN(Cc3ccc4ccccc4c3)CC2)c1=O)N(Cc1ccccc1)c1ccccc1 [1-104] | 126 nM | 20 nM | 200 nM |  |  | 
O=C1CCCN1Cc1ccc(-n2ccnc(NC3CCN(Cc4ccc5ccccc5c4)CC3)c2=O)cc1 [2-01] | 20 nM | 31.6 nM | 251 nM |  |  | 
